Laboratory results from PubChem BioAssay AID180 (DTP/NCI, 2004).
Values joined by “and” are separate entries in the source; they are usually repeats but may differ in a detail not shown here. Equal values may be shown once.

System: BDF1 mice, Adenocarcinoma 755 s.c., tumor weight T/C
Assay: NCI In Vivo Anticancer Drug Screen. Data for tumor model Adenocarcinoma 755 (subcutaneous) in B6D2F1 (BDF1) mice
Details: endpoint: mean tumor weight, higher = larger tumour
Method in brief: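 Values express treated (T) relative to vehicle-dosed control (C) animals, based on survival or tumour size measured after compound treatment of mice bearing a transplanted tumour.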

SMILES: CC(=O)[C@H]1[C@H](O)C[C@H]2[C@@H]3CCC4=CC(=O)CC[C@]4(C)[C@@]3(F)[C@@H](O)C[C@@]21C
- T/C (dose: 100.0 mg/kg/injection, schedule: Q01DX011 (sc), vehicle: steriod suspending solution): 48 % of control
- T/C (dose: 125.0 mg/kg/injection, schedule: Q01DX011 (oral), vehicle: steriod suspending solution): 74 % of control
- T/C (dose: 200.0 mg/kg/injection, schedule: Q01DX011 (sc), vehicle: steriod suspending solution): 38 % of control
- T/C (dose: 250.0 mg/kg/injection, schedule: Q01DX011 (oral), vehicle: steriod suspending solution): 57 % of control
- T/C (dose: 400.0 mg/kg/injection, schedule: Q01DX011 (sc), vehicle: steriod suspending solution): 36 % of control
- T/C (dose: 500.0 mg/kg/injection, schedule: Q01DX011 (oral), vehicle: steriod suspending solution): 62 % of control
- T/C (dose: 800.0 mg/kg/injection, schedule: Q01DX011 (sc), vehicle: steriod suspending solution): 26 % of control
- T/C (dose: 1000.0 mg/kg/injection, schedule: Q01DX011 (oral), vehicle: steriod suspending solution): 58 % of control

SMILES: CCC1CN1CC1CO1 (stereo unspecified)
- T/C (dose: 5.0 mg/kg/injection, schedule: Q01DX011 (ip), vehicle: saline): 96 % of control
- T/C (dose: 10.0 mg/kg/injection, schedule: Q01DX011 (ip), vehicle: saline): 99 % of control

SMILES: O=[N+]([O-])c1ccc(C=Nc2ccc3c(c2)C(Br)c2ccccc2-3)cc1 (stereo unspecified)
- T/C (dose: 28.0 mg/kg/injection, schedule: Q01DX011 (ip), vehicle: saline): 113 % of control
- T/C (dose: 55.0 mg/kg/injection, schedule: Q01DX011 (ip), vehicle: saline): 96 % of control
- T/C (dose: 110.0 mg/kg/injection, schedule: Q01DX011 (ip), vehicle: saline): 73 % of control
- T/C (dose: 220.0 mg/kg/injection, schedule: Q01DX011 (ip), vehicle: saline): 40 % of control and 44 % of control
- T/C (dose: 440.0 mg/kg/injection, schedule: Q01DX011 (ip), vehicle: saline): 39 % of control

SMILES: CCCCCCCCCCCC[N+](C)(C)c1ncnc2nc[nH]c12
- T/C (dose: 12.0 mg/kg/injection, schedule: Q01DX011 (ip), vehicle: carboxymethylcellulose (CMC)): 103 % of control
- T/C (dose: 24.0 mg/kg/injection, schedule: Q01DX011 (ip), vehicle: carboxymethylcellulose (CMC)): 55 % of control
- T/C (dose: 48.0 mg/kg/injection, schedule: Q01DX011 (ip), vehicle: carboxymethylcellulose (CMC)): 13 % of control

SMILES: C=CC1OCCN1CC (stereo unspecified)
- T/C (dose: 12.5 mg/kg/injection, schedule: Q01DX011 (ip), vehicle: other): 106 % of control
- T/C (dose: 50.0 mg/kg/injection, schedule: Q01DX011 (ip), vehicle: other): 87 % of control

SMILES: CCOCCNS(=O)(=O)c1ncnc2nc[nH]c12
- T/C (dose: 11.2 mg/kg/injection, schedule: Q01DX011 (ip), vehicle: carboxymethylcellulose (CMC)): 53 % of control
- T/C (dose: 22.5 mg/kg/injection, schedule: Q01DX011 (ip), vehicle: carboxymethylcellulose (CMC)): 9 % of control
- T/C (dose: 30.0 mg/kg/injection, schedule: Q01DX011 (ip), vehicle: carboxymethylcellulose (CMC)): 2 % of control
- T/C (dose: 45.0 mg/kg/injection, schedule: Q01DX011 (ip), vehicle: carboxymethylcellulose (CMC)): 3 % of control
- T/C (dose: 60.0 mg/kg/injection, schedule: Q01DX011 (ip), vehicle: carboxymethylcellulose (CMC)): 1 % of control

SMILES: COB1OB(OC)OB(OC)O1
- T/C (dose: 18.75 mg/kg/injection, schedule: Q01DX011 (ip), vehicle: water): 78 % of control
- T/C (dose: 250.0 mg/kg/injection, schedule: Q#A X022 (oral), vehicle: water): 64 % of control
- T/C (dose: 335.0 mg/kg/injection, schedule: Q01DX011 (ip), vehicle: other): 51 % of control
- T/C (dose: 375.0 mg/kg/injection, schedule: Q01DX011 (im), vehicle: other): 59 % of control
- T/C (dose: 375.0 mg/kg/injection, schedule: Q01DX011 (ip), vehicle: other): 75 % of control
- T/C (dose: 375.0 mg/kg/injection, schedule: Q01DX011 (ip), vehicle: water): 61 % of control
- T/C (dose: 375.0 mg/kg/injection, schedule: Q01DX011 (sc), vehicle: other): 81 % of control
- T/C (dose: 450.0 mg/kg/injection, schedule: Q#A X022 (sc), vehicle: other): 40 % of control
- T/C (dose: 500.0 mg/kg/injection, schedule: Q01DX011 (ip), vehicle: other): 41 % of control and 51 % of control
- T/C (dose: 500.0 mg/kg/injection, schedule: Q01DX011 (oral), vehicle: other): 97 % of control and 75 % of control
- T/C (dose: 500.0 mg/kg/injection, schedule: Q#A X022 (oral), vehicle: water): 43 % of control
- T/C (dose: 600.0 mg/kg/injection, schedule: Q01DX011 (oral), vehicle: other): 53 % of control
- T/C (dose: 600.0 mg/kg/injection, schedule: Q## X012 (oral), vehicle: other): 109 % of control
- T/C (dose: 600.0 mg/kg/injection, schedule: Q#A X022 (im), vehicle: other): 28 % of control
- T/C (dose: 600.0 mg/kg/injection, schedule: Q#A X022 (sc), vehicle: other): 74 % of control
- T/C (dose: 750.0 mg/kg/injection, schedule: Q01DX011 (im), vehicle: other): 65 % of control and 74 % of control
- T/C (dose: 750.0 mg/kg/injection, schedule: Q01DX011 (ip), vehicle: other): 43 % of control and 47 % of control and 55 % of control
- T/C (dose: 750.0 mg/kg/injection, schedule: Q01DX011 (ip), vehicle: water): 20 % of control
- T/C (dose: 750.0 mg/kg/injection, schedule: Q01DX011 (oral), vehicle: other): 71 % of control
- T/C (dose: 750.0 mg/kg/injection, schedule: Q02DX006 (ip), vehicle: other): 71 % of control
- T/C (dose: 750.0 mg/kg/injection, schedule: Q## X006 (ip), vehicle: other): 78 % of control
- T/C (dose: 750.0 mg/kg/injection, schedule: Q#A X022 (oral), vehicle: water): 7 % of control and 21 % of control
- T/C (dose: 750.0 mg/kg/injection, schedule: Q#A X022 (sc), vehicle: other): 43 % of control
- T/C (dose: 800.0 mg/kg/injection, schedule: Q01DX011 (im), vehicle: other): 77 % of control
- T/C (dose: 800.0 mg/kg/injection, schedule: Q#A X022 (im), vehicle: other): 50 % of control
- T/C (dose: 1000.0 mg/kg/injection, schedule: Q01DX011 (im), vehicle: other): 48 % of control and 56 % of control
- T/C (dose: 1000.0 mg/kg/injection, schedule: Q01DX011 (ip), vehicle: other): 14 % of control and 37 % of control
- T/C (dose: 1000.0 mg/kg/injection, schedule: Q01DX011 (oral), vehicle: saline): 47 % of control
- T/C (dose: 1000.0 mg/kg/injection, schedule: Q01DX011 (oral), vehicle: water): 37 % of control
- T/C (dose: 1000.0 mg/kg/injection, schedule: Q02DX006 (ip), vehicle: other): 45 % of control
- T/C (dose: 1000.0 mg/kg/injection, schedule: Q## X006 (ip), vehicle: other): 63 % of control
- T/C (dose: 1000.0 mg/kg/injection, schedule: Q## X012 (oral), vehicle: other): 84 % of control
- T/C (dose: 1000.0 mg/kg/injection, schedule: Q#A X022 (oral), vehicle: water): 8 % of control
- T/C (dose: 1000.09 mg/kg/injection, schedule: Q01DX011 (oral), vehicle: other): 36 % of control
- T/C (dose: 1125.0 mg/kg/injection, schedule: Q01DX011 (ip), vehicle: other): 43 % of control
- T/C (dose: 1200.0 mg/kg/injection, schedule: Q01DX011 (im), vehicle: other): 22 % of control
- T/C (dose: 1250.0 mg/kg/injection, schedule: Q01DX011 (sc), vehicle: other): 38 % of control
- T/C (dose: 1250.0 mg/kg/injection, schedule: Q#A X022 (oral), vehicle: water): 2 % of control and 10 % of control
- T/C (dose: 1500.0 mg/kg/injection, schedule: Q01DX011 (im), vehicle: other): 16 % of control and 30 % of control
- T/C (dose: 1500.0 mg/kg/injection, schedule: Q01DX011 (ip), vehicle: water): 6 % of control
- T/C (dose: 1500.0 mg/kg/injection, schedule: Q01DX011 (oral), vehicle: saline): 16 % of control
- T/C (dose: 1500.0 mg/kg/injection, schedule: Q01DX011 (oral), vehicle: water): 16 % of control
- T/C (dose: 1500.0 mg/kg/injection, schedule: Q01DX011 (sc), vehicle: other): 22 % of control
- T/C (dose: 1500.0 mg/kg/injection, schedule: Q02DX006 (ip), vehicle: other): 37 % of control
- T/C (dose: 1500.0 mg/kg/injection, schedule: Q## X006 (ip), vehicle: other): 58 % of control
- T/C (dose: 1500.0 mg/kg/injection, schedule: Q## X012 (oral), vehicle: other): 51 % of control
- T/C (dose: 2000.0 mg/kg/injection, schedule: Q01DX011 (oral), vehicle: saline): 14 % of control
- T/C (dose: 2000.0 mg/kg/injection, schedule: Q01DX011 (oral), vehicle: water): 7 % of control
- T/C (dose: 2000.0 mg/kg/injection, schedule: Q## X012 (oral), vehicle: other): 15 % of control
- T/C (dose: 2500.0 mg/kg/injection, schedule: Q01DX011 (oral), vehicle: saline): 4 % of control
- T/C (dose: 2500.0 mg/kg/injection, schedule: Q## X012 (oral), vehicle: other): 22 % of control

SMILES: CCCCn1cnc2c(SCc3ccccn3)nc(N)nc21
- T/C (dose: 3.6 mg/kg/injection, schedule: Q01DX011 (ip), vehicle: methylcellulose (MC)): 6 % of control
- T/C (dose: 7.25 mg/kg/injection, schedule: Q01DX011 (ip), vehicle: methylcellulose (MC)): 2 % of control

SMILES: O=S(=O)(O)C(Nc1ccccc1)c1ccccc1 (stereo unspecified)
- T/C (dose: 20.0 mg/kg/injection, schedule: Q01DX011 (ip), vehicle: carboxymethylcellulose (CMC)): 119 % of control
- T/C (dose: 40.0 mg/kg/injection, schedule: Q01DX011 (ip), vehicle: carboxymethylcellulose (CMC)): 91 % of control
- T/C (dose: 80.0 mg/kg/injection, schedule: Q01DX011 (ip), vehicle: carboxymethylcellulose (CMC)): 70 % of control
